Experimental data reported in ChEMBL document CHEMBL3132743, “Synthesis of hetero annulated carbazoles: exploration of in vitro cytotoxicity and molecular docking studies” (Medchemcomm, 2013).

Experiments:
HeLa [1] = experiment: Cytotoxicity against human HeLa cells after 48 hrs by MTT assay; assay type: functional, cell-based
MCF7 = experiment: Cytotoxicity against human MCF7 cells after 48 hrs by MTT assay; assay type: functional, cell-based; details: MCF7, 48 h
HeLa [2] = experiment: Ratio of ellipticine IC50 to compound IC50 for human HeLa cells; assay type: functional

Compound | IC50 (HeLa [1]) | IC50 (MCF7) | Ratio IC50 (HeLa [2])
Nc1nc(-c2cc3c(ccc4ccccc43)nc2Cl)c2ccc3c4cc(Cl)ccc4[nH]c3c2n1 | 12.4 µM | 32.6 µM | 
Cc1ccc2[nH]c3c(c2c1)CCc1c-3noc1-c1cc2c(ccc3ccccc32)nc1Cl | 26.1 µM | 67.9 µM | 
O=C1/C(=C/c2cc3c(ccc4ccccc43)nc2Cl)CCc2c1[nH]c1ccc(Cl)cc21 | 32.5 µM | 75.5 µM | 
Clc1nc2ccc3ccccc3c2cc1-c1onc2c1CCc1c-2[nH]c2ccccc12 | 27.5 µM | 70.5 µM | 
CCOc1nc2c(c(-c3cc4c(ccc5ccccc54)nc3Cl)c1C#N)CCc1c-2[nH]c2ccc(Cl)cc12 | 8.11 µM | 34.5 µM | 1.21
Cc1ccc2[nH]c3c(c2c1)CC/C(=C\c1cc2c(ccc4ccccc42)nc1Cl)C3=O | 35.8 µM | > 100 µM | 
O=C1/C(=C/c2cc3c(ccc4ccccc43)nc2Cl)CCc2c1[nH]c1ccccc21 | 42.3 µM | > 100 µM | 
Cc1c2ccncc2c(C)c2c1[nH]c1ccccc12 [ELLIPTECINE] | 9.81 µM | 16.7 µM | 
CCOc1nc2c(c(-c3cc4c(ccc5ccccc54)nc3Cl)c1C#N)CCc1c-2[nH]c2ccc(C)cc12 | 9.63 µM | 37.4 µM | 
Nc1nc(-c2cc3c(ccc4ccccc43)nc2Cl)c2ccc3c4ccccc4[nH]c3c2n1 | 18.6 µM | 42.9 µM | 
Cc1ccc2[nH]c3c(ccc4c(-c5cc6c(ccc7ccccc76)nc5Cl)nc(N)nc43)c2c1 | 14.8 µM | 39.4 µM | 
Clc1ccc2[nH]c3c(c2c1)CCc1c-3noc1-c1cc2c(ccc3ccccc32)nc1Cl | 22.3 µM | 55.1 µM | 
CCOc1nc2c(c(-c3cc4c(ccc5ccccc54)nc3Cl)c1C#N)CCc1c-2[nH]c2ccccc12 | 12.3 µM | 46.6 µM | 
